Format in all cases: in vivo
In assay [1] the test system is Plutella xylostella (Diamond Back Moth). The experiment in a line: Example B4: Plutella xylostella (diamond back moth), treated artificial diet, eggs. The settings on record: 192 h, application rate of 200 ppm, 8 days after infestation, in comparison to untreated samples, read-out: effect in at least one of the two categories (mortality or growth inhibition). Here is the method: Example B4: Plutella xylostella (Diamond Back Moth
24-well microtiter plates with artificial diet were treated with aqueous test solutions prepared from 10′000 ppm DMSO stock solutions by pipetting. After drying, Plutella eggs were pipetted through a plastic stencil onto a gel blotting paper and the plate was closed with it. The samples were assessed for mortality and growth inhibition in comparison to untreated samples 8 days after infestation.

The test system of assay [2] is Diabrotica balteata (Corn Root Worm). The experiment in a line: Example B1: Diabrotica balteata (corn root worm), sprayed maize sprouts on agar, L2 larvae. The settings on record: 96 h, application rate of 200 ppm, 4 days after infestation, in comparison to untreated samples, read-out: effect in at least one of the two categories (mortality or growth inhibition). The procedure: Example B1: Diabrotica balteata (Corn Root Worm
Maize sprouts placed onto an agar layer in 24-well microtiter plates were treated with aqueous test solutions prepared from 10′000 ppm DMSO stock solutions by spraying. After drying, the plates were infested with L2 larvae (6 to 10 per well). The samples were assessed for mortality and growth inhibition in comparison to untreated samples 4 days after infestation.

In assay [3] the test system is Spodoptera littoralis (Egyptian Cotton Leaf Worm). As to the kind of experiment: Example B7: Spodoptera littoralis (Egyptian cotton leaf worm), sprayed cotton leaf discs, L1 larvae. Particulars: foliar, 72 h, application rate of 200 ppm, 3 days after infestation, in comparison to untreated samples. The procedure: Example B7: Spodoptera littoralis (Egyptian Cotton Leaf Worm
Cotton leaf discs were placed onto agar in 24-well microtiter plates and sprayed with aqueous test solutions prepared from 10′000 ppm DMSO stock solutions. After drying the leaf discs were infested with five L1 larvae. The samples were assessed for mortality, anti-feeding effect, and growth inhibition in comparison to untreated samples 3 days after infestation. Control of Spodoptera littoralis by a test sample is given when at least one of the categories mortality, anti-feedant effect, and growth inhibition is higher than the untreated sample.

`CCS(=O)(=O)c1cc(N(C)C(C)=O)cnc1-c1nc2cc(S(=N)(=O)C(F)(F)F)ccc2o1` (stereo not shown) [P4, N-[5-ethylsulfonyl-6-[5-(trifluoromethylsulfonimidoyl)-1,3-benzoxazol-2-yl]-3-pyridyl]-N-methyl-acetamide]: the percent effect (mortality or growth inhibition) at 200 ppm in assay [1] and in assay [2] was ≥ 80% in each case. The percent control (mortality, anti-feeding effect or growth inhibition) at 200 ppm in assay [3] is ≥ 80%.

For `CCN=S(=O)(c1ccc2oc(-c3ncc(-n4ccc(C(F)(F)F)n4)cc3S(=O)(=O)CC)nc2c1)C(F)(F)F` (stereo not shown) [P5, ethylimino-[2-[3-ethylsulfonyl-5-[3-(trifluoromethyl)pyrazol-1-yl]-2-pyridyl]-1,3-benzoxazol-5-yl]-oxo-(trifluoromethyl)-λ^6-sulfane], the percent effect (mortality or growth inhibition) at 200 ppm in assay [1] and in assay [2] was ≥ 80% throughout.

As to `CCS(=O)(=O)c1cc(-n2ccc(C(F)(F)F)n2)cnc1-c1nc2cc(S(=N)(=O)C(F)(F)F)ccc2o1` (stereo not shown) [P6, [2-[3-ethylsulfonyl-5-[3-(trifluoromethyl)pyrazol-1-yl]-2-pyridyl]-1,3-benzoxazol-5-yl]-imino-oxo-(trifluoromethyl)-λ^6-sulfane], the percent effect (mortality or growth inhibition) at 200 ppm in assay [1] and in assay [2] was ≥ 80% throughout. Moreover, in assay [3], the percent control (mortality, anti-feeding effect or growth inhibition) at 200 ppm was ≥ 80%.

For the compound `CCS(=O)(=O)c1cccnc1-c1nc2cc(S(=O)(=NCC(F)(F)F)C(F)(F)F)ccc2o1` (stereo not shown) [P14, [2-(3-ethylsulfonyl-2-pyridyl)-1,3-benzoxazol-5-yl]-oxo-(2,2,2-trifluoroethylimino)-(trifluoromethyl)-λ^6-sulfane], the percent effect (mortality or growth inhibition) at 200 ppm in assay [1] and in assay [2] was ≥ 80% each time. Also, the percent control (mortality, anti-feeding effect or growth inhibition) at 200 ppm in assay [3] was ≥ 80%.

On to `CCS(=O)(=O)c1cccnc1-c1nc2cc(S(=O)(=NC#N)C(F)(F)F)ccc2o1` (stereo not shown) [P15, [[2-(3-ethylsulfonyl-2-pyridyl)-1,3-benzoxazol-5-yl]-oxo-(trifluoromethyl)-λ^6-sulfanylidene]cyanamide], for which the percent effect (mortality or growth inhibition) at 200 ppm in assay [1] and in assay [2] was ≥ 80% each time.

On to `CCS(=O)(=O)c1cc(OCC(F)(F)F)cnc1-c1nc2cc(S(=N)(=O)C(F)(F)F)ccc2o1` (stereo not shown) [P23, [2-[3-ethylsulfonyl-5-(2,2,2-trifluoroethoxy)-2-pyridyl]-1,3-benzoxazol-5-yl]-imino-oxo-(trifluoromethyl)-λ^6-sulfane], for which the percent effect (mortality or growth inhibition) at 200 ppm in assay [1] and in assay [2] was ≥ 80% throughout. The percent control (mortality, anti-feeding effect or growth inhibition) at 200 ppm in assay [3] is ≥ 80%.

Regarding `CCS(=O)(=O)c1cc(C2(C#N)CC2)cnc1-c1nc2cc(S(=O)(=NCC(F)(F)F)C(F)(F)F)ccc2o1` (stereo not drawn) [P28, 1-[5-ethylsulfonyl-6-[5-[N-(2,2,2-trifluoroethyl)-S-(trifluoromethyl)sulfonimidoyl]-1,3-benzoxazol-2-yl]-3-pyridyl]cyclopropanecarbonitrile], the percent effect (mortality or growth inhibition) at 200 ppm in assay [1] and in assay [2] was ≥ 80% throughout. The percent control (mortality, anti-feeding effect or growth inhibition) at 200 ppm in assay [3] was ≥ 80%.

Turning to `CCS(=O)(=O)c1cc(C2(C#N)CC2)cnc1-c1nc2cc(S(=O)(=NC3CC3)C(F)(F)F)ccc2o1` (stereo not drawn) [P30, 1-[6-[5-[N-cyclopropyl-S-(trifluoromethyl)sulfonimidoyl]-1,3-benzoxazol-2-yl]-5-ethylsulfonyl-3-pyridyl]cyclopropanecarbonitrile], the percent effect (mortality or growth inhibition) at 200 ppm in assay [1] and in assay [2] was ≥ 80% throughout. Besides, the percent control (mortality, anti-feeding effect or growth inhibition) at 200 ppm in assay [3] was ≥ 80%.

As for `CCS(=O)(=O)c1cc(-n2ccc(Cl)n2)cnc1-c1nc2cc(S(=N)(=O)C(F)(F)F)ccc2o1` (stereo not shown) [P37, [2-[5-(3-chloropyrazol-1-yl)-3-ethylsulfonyl-2-pyridyl]-1,3-benzoxazol-5-yl]-imino-oxo-(trifluoromethyl)-λ^6-sulfane], the percent effect (mortality or growth inhibition) at 200 ppm in assay [1] and in assay [2] was ≥ 80% each time. Moreover, in assay [3], the percent control (mortality, anti-feeding effect or growth inhibition) at 200 ppm is ≥ 80%.

As to `CCN=S(=O)(c1ccc2oc(-c3ncc(-n4ccc(Cl)n4)cc3S(=O)(=O)CC)nc2c1)C(F)(F)F` (stereo not shown) [P38, [2-[5-(3-chloropyrazol-1-yl)-3-ethylsulfonyl-2-pyridyl]-1,3-benzoxazol-5-yl]-ethylimino-oxo-(trifluoromethyl)-λ^6-sulfane], the percent effect (mortality or growth inhibition) at 200 ppm in assay [1] and in assay [2] was ≥ 80% in each case. The percent control (mortality, anti-feeding effect or growth inhibition) at 200 ppm in assay [3] was ≥ 80%.

`CCN=S(=O)(c1ccc2oc(-c3nc(-n4cncn4)ccc3S(=O)(=O)CC)nc2c1)C(F)(F)F` (stereo not shown) [P39, ethylimino-[2-[3-ethylsulfonyl-6-(1,2,4-triazol-1-yl)-2-pyridyl]-1,3-benzoxazol-5-yl]-oxo-(trifluoromethyl)-λ^6-sulfane]: in assay [2], the percent effect (mortality or growth inhibition) at 200 ppm was ≥ 80%.

Turning to `CCN=S(=O)(c1ccc2oc(-c3ncc(-c4nccc(C(F)(F)F)n4)cc3S(=O)(=O)CC)nc2c1)C(F)(F)F` (stereo not shown) [P41, ethylimino-[2-[3-ethylsulfonyl-5-[4-(trifluoromethyl)pyrimidin-2-yl]-2-pyridyl]-1,3-benzoxazol-5-yl]-oxo-(trifluoromethyl)-λ^6-sulfane], the percent effect (mortality or growth inhibition) at 200 ppm in assay [1] and in assay [2] was ≥ 80% each time. In addition, in assay [3], the percent control (mortality, anti-feeding effect or growth inhibition) at 200 ppm is ≥ 80%.

Turning to `CCN=S(=O)(c1ccc2oc(-c3ncc(-c4ncc(Cl)cn4)cc3S(=O)(=O)CC)nc2c1)C(F)(F)F` (stereo not shown) [P43, [2-[5-(5-chloropyrimidin-2-yl)-3-ethylsulfonyl-2-pyridyl]-1,3-benzoxazol-5-yl]-ethylimino-oxo-(trifluoromethyl)-λ^6-sulfane], the percent effect (mortality or growth inhibition) at 200 ppm in assay [1] and in assay [2] was ≥ 80% throughout. For the same compound, the percent control (mortality, anti-feeding effect or growth inhibition) at 200 ppm in assay [3] was ≥ 80%.

Turning to `CCS(=O)(=O)c1ccc(-n2cnc(Cl)n2)nc1-c1nc2cc(S(=N)(=O)C(F)(F)F)ccc2n1C` (stereo not shown) [P46, [2-[6-(3-chloro-1,2,4-triazol-1-yl)-3-ethylsulfonyl-2-pyridyl]-1-methyl-benzimidazol-5-yl]-imino-oxo-(trifluoromethyl)-λ^6-sulfane], the percent effect (mortality or growth inhibition) at 200 ppm in assay [1] and in assay [2] was ≥ 80% each time. The percent control (mortality, anti-feeding effect or growth inhibition) at 200 ppm in assay [3] was ≥ 80%.

Consider `CCN=S(=O)(c1ccc2c(c1)nc(-c1nc(-n3cnc(Cl)n3)ccc1S(=O)(=O)CC)n2C)C(F)(F)F` (stereo not shown) [P47, [2-[6-(3-chloro-1,2,4-triazol-1-yl)-3-ethylsulfonyl-2-pyridyl]-1-methyl-benzimidazol-5-yl]-ethylimino-oxo-(trifluoromethyl)-λ^6-sulfane], for which the percent effect (mortality or growth inhibition) at 200 ppm in assay [1] and in assay [2] was ≥ 80% in each case. The percent control (mortality, anti-feeding effect or growth inhibition) at 200 ppm in assay [3] was ≥ 80%.

With `CCS(=O)(=O)c1ccc(-n2cnc(C(F)(F)F)n2)nc1-c1nc2cc(S(=N)(=O)C(F)(F)F)ccc2n1C` (stereo not shown) [P48, [2-[3-ethylsulfonyl-6-[3-(trifluoromethyl)-1,2,4-triazol-1-yl]-2-pyridyl]-1-methyl-benzimidazol-5-yl]-imino-oxo-(trifluoromethyl)-λ^6-sulfane], the percent effect (mortality or growth inhibition) at 200 ppm in assay [1] and in assay [2] was ≥ 80% throughout. Besides, the percent control (mortality, anti-feeding effect or growth inhibition) at 200 ppm in assay [3] was ≥ 80%.

With `CCN=S(=O)(c1ccc2c(c1)nc(-c1nc(-n3cnc(C(F)(F)F)n3)ccc1S(=O)(=O)CC)n2C)C(F)(F)F` (stereo not shown) [P49, ethylimino-[2-[3-ethylsulfonyl-6-[3-(trifluoromethyl)-1,2,4-triazol-1-yl]-2-pyridyl]-1-methyl-benzimidazol-5-yl]-oxo-(trifluoromethyl)-λ^6-sulfane], the percent effect (mortality or growth inhibition) at 200 ppm in assay [1] and in assay [2] was ≥ 80% in each case. Besides, in assay [3], the percent control (mortality, anti-feeding effect or growth inhibition) at 200 ppm was ≥ 80%.

For the compound `CCS(=O)(=O)c1ccc(-c2ncccn2)nc1-c1nc2cc(S(=N)(=O)C(F)(F)F)ccc2o1` (stereo not shown) [P54, [2-(3-ethylsulfonyl-6-pyrimidin-2-yl-2-pyridyl)-1,3-benzoxazol-5-yl]-imino-oxo-(trifluoromethyl)-λ^6-sulfane], the percent effect (mortality or growth inhibition) at 200 ppm in assay [1] and in assay [2] was ≥ 80% throughout. For the same compound, the percent control (mortality, anti-feeding effect or growth inhibition) at 200 ppm in assay [3] is ≥ 80%.

On to `CCS(=O)(=O)c1ccc(-n2cncn2)nc1-c1nc2cc(S(=N)(=O)C(F)(F)F)ccc2o1` (stereo not shown) [P56, [2-[3-ethylsulfonyl-6-(1,2,4-triazol-1-yl)-2-pyridyl]-1,3-benzoxazol-5-yl]-imino-oxo-(trifluoromethyl)-λ^6-sulfane], for which the percent effect (mortality or growth inhibition) at 200 ppm in assay [1] and in assay [2] was ≥ 80% each time.

(Values after patent US12503461B2, “Pesticidally active heterocyclic derivatives with sulfur and sulfoximine containing substituents” (SYNGENTA CROP PROTECTION AG, priority 2019, dated 2025).)
